29 compounds from patent publication US20120129833A1, “CYCLIC KETOENOLS FOR THERAPY” (BAYER PHARMA AKTIENGESELLSCHAFT, priority 2010, published 2012) can be followed below.

Molecules are shown by their SMILES. A value given as a limit tells only on which side of the number the result lay.

In assay [1] the target is T1, recombinant human ACC1 (acetyl-CoA carboxylase 1) (Homo sapiens, UniProt Q13085).
T1 construct: NM_198834, amino acids 39—end; FLAG (C); made in house; host or cells: baculovirus-transfected insect cells (Hi5)
Briefly: Human ACC1 enzyme assay (HTRF ADP detection).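 Note: ADP by-product quantified by competitive HTRF immunoassay with europium cryptate anti-ADP antibody and d2-labelled ADP, read after 1 h binding at 22 °C, enzyme near 2.5 ng/µl.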 To be noted: 50 μM ATP, 20 μM acetyl-CoA, 15 min pre-incubation, 20 min at 22° C.; read-out: ACC 1 IC50. Format: biochemical. For orientation: TR-FRET usually uses a lanthanide donor and a delayed reading to cut background.
Description: The basic principle of the assay is the measurement of adenosine diphosphate (ADP), which is formed as a by-product, by means of an HTRF®-based competitive immunoassay (HTRF=Homogeneous Time Resolved Fluorescence).
The amount of complex of d2-labelled ADP and europium cryptate-labelled anti-ADP antibody was then determined by measuring the resonance energy transfer of europium cryptate to d2.

Assay [2] concerns the target T2, ACC2 (acetyl-CoA carboxylase 2) (Homo sapiens, UniProt O00763).
T2 construct: catalogue no; 50201, amino acids 39—end, expressed in baculovirus-transfected Sf9 insect cells; His (C); purchased BPS Bioscience (San Diego, Calif.) 50201; host or cells: baculovirus-transfected Sf9 insect cells
Put plainly: Human ACC2 enzyme assay (HTRF ADP detection). The following applies: 20 μM acetyl-CoA, 15 min pre-incubation, 20 min at 22° C.; read-out: ACC 2 IC50. Format: biochemical.

T2 sequence (O00763 39-2458 limits assumed): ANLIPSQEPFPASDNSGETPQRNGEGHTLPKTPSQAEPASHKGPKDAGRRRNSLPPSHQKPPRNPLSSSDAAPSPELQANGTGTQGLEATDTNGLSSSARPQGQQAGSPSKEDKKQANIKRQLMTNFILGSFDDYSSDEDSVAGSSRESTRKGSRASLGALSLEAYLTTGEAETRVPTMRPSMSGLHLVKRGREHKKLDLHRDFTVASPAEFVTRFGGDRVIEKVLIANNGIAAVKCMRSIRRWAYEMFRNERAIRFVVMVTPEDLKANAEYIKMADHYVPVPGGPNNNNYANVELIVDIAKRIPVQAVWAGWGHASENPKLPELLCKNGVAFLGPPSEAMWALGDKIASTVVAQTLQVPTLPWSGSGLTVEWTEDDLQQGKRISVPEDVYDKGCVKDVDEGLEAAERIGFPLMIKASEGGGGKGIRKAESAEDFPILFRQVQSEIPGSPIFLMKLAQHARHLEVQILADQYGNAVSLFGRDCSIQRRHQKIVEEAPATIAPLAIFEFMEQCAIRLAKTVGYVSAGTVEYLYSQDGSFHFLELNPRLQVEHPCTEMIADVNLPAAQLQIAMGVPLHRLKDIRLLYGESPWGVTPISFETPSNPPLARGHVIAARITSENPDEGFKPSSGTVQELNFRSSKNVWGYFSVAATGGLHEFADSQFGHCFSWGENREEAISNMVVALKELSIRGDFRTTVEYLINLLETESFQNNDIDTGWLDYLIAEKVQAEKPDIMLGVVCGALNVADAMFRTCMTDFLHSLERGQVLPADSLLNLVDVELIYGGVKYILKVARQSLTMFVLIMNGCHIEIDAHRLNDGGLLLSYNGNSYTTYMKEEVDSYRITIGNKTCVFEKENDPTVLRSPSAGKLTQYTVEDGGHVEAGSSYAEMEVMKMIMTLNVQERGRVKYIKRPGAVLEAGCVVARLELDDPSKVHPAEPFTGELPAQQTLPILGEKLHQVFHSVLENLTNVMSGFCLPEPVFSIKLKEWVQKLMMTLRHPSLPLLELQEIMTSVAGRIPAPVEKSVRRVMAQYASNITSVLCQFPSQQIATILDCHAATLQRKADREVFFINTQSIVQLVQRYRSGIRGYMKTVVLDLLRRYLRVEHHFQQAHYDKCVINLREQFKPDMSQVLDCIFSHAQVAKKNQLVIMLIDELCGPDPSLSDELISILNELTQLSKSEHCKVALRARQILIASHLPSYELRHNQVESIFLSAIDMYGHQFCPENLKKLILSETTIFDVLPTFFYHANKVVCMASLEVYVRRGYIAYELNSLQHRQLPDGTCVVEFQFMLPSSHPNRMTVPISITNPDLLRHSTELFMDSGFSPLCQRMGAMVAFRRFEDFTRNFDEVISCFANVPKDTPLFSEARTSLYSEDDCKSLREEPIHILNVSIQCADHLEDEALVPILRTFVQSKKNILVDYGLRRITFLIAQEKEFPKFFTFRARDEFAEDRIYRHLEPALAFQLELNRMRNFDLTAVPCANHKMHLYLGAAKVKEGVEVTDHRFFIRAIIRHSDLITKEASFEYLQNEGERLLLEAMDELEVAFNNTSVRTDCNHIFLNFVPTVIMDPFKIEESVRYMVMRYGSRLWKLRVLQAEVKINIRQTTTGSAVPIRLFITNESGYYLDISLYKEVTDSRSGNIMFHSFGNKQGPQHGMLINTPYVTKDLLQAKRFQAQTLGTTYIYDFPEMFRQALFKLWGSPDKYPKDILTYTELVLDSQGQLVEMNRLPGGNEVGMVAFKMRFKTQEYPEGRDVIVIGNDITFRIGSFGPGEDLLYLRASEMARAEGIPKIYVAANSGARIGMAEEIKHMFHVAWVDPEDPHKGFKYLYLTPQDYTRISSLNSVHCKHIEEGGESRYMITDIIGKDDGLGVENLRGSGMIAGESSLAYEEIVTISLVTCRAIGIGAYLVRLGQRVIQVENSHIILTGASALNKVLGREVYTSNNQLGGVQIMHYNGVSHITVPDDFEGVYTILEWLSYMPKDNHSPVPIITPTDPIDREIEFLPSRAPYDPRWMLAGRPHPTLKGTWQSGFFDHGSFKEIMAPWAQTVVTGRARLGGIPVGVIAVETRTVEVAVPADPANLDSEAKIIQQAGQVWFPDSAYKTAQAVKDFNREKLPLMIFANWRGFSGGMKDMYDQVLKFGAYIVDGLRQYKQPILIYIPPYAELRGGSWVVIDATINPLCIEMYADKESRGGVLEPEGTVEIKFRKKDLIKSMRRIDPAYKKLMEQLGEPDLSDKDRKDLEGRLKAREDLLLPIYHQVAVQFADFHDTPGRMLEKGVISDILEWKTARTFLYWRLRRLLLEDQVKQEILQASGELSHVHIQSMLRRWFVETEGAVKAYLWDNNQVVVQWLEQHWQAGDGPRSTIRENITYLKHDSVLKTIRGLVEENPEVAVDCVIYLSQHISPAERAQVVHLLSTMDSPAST

On to `Cc1ccc(-c2ccc(F)c(F)c2)cc1C1=C(O)C2(CCC3(CCCO3)CC2)NC1=O` (stereo not shown) [Example 1-35, 11-(3′,4′-difluoro-4-methylbiphenyl-3-yl)-12-hydroxy-1-oxa-9-azadispiro[4.2.4.2]tetradec-11-en-10-one], for which the IC50 in assay [1] amounted to 298 nM; in assay [2], 4000 nM.
For `Cc1ccc(-c2cc(F)c(F)c(F)c2)cc1C1=C(O)C2(CCOCC2)NC1=O` [Example 1-36, 4-hydroxy-3-(3′,4′,5′-trifluoro-4-methylbiphenyl-3-yl)-8-oxa-1-azaspiro[4.5]dec-3-en-2-one], the IC50 is 792 nM in assay [1] and over 20000 nM in assay [2].
The matching figures for `Cc1ccc(-c2ccc(F)c(F)c2)cc1C1=C(O)C2(CCOCC2)NC1=O` [Example 1-37, 3-(3′,4′-difluoro-4-methylbiphenyl-3-yl)-4-hydroxy-8-oxa-1-azaspiro[4.5]dec-3-en-2-one]: 810 nM and over 20000 nM.
Take `O=C1NC2(CCOCC2)C(O)=C1c1cc(-c2cc(F)c(F)c(F)c2)ccc1Cl` [Example 1-38, 3-(4-chloro-3′,4′,5′-trifluorobiphenyl-3-yl)-4-hydroxy-8-oxa-1-azaspiro[4.5]dec-3-en-2-one]: the IC50 was 497 nM in assay [1] and over 20000 nM in assay [2].
The matching figures for `Cc1ccc(-c2ccc(Cl)c(C3=C(O)C4(CCOCC4)NC3=O)c2)cc1F` [Example 1-39, 3-(4-chloro-3′-fluoro-4′-methylbiphenyl-3-yl)-4-hydroxy-8-oxa-1-azaspiro[4.5]dec-3-en-2-one]: 663 nM and over 20000 nM.
Take `Cc1ccc(-c2ccc(F)cc2)c(C)c1C1=C(O)C2(CCCCC2)NC1=O` [Example 1-40, 3-(4′-fluoro-2,4-dimethylbiphenyl-3-yl)-4-hydroxy-1-azaspiro[4.5]dec-3-en-2-one]: the IC50 came out at 1200 nM in assay [1] and 15000 nM in assay [2].
For the compound `O=C1NC2(CCOCC2)C(O)=C1c1cc(-c2ccc(F)cc2)ccc1Cl` [Example 1-41, 3-(4-chloro-4′-fluorobiphenyl-3-yl)-4-hydroxy-8-oxa-1-azaspiro[4.5]dec-3-en-2-one], the IC50 in assay [1] was 751 nM; in assay [2], over 20000 nM.
As for `CO[C@H]1CC[C@]2(CC1)NC(=O)C(c1c(C)cc(C)c(-c3ccc(F)cc3)c1C)=C2O` [Example 1-42, (5s,8s)-3-(4′-fluoro-2,4,6-trimethylbiphenyl-3-yl)-4-hydroxy-8-methoxy-1-azaspiro[4.5]dec-3-en-2-one], the 50% inhibitory concentration (IC50) is over 20000 nM in assay [1] and 669 nM in assay [2].
The corresponding values for `CO[C@H]1CC[C@]2(CC1)NC(=O)C(c1cc(-c3ccc(F)c(Cl)c3)ccc1C)=C2O` [Example 1-43, (5s,8s)-3-(3′-chloro-4′-fluoro-4-methylbiphenyl-3-yl)-4-hydroxy-8-methoxy-1-azaspiro[4.5]dec-3-en-2-one] are 304 nM and 10200 nM.
The matching figures for `CO[C@H]1CC[C@]2(CC1)NC(=O)C(c1cc(-c3ccc(F)cc3)ccc1Cl)=C2O` [Example 1-44, (5s,8s)-3-(4-chloro-4′-fluorobiphenyl-3-yl)-4-hydroxy-8-methoxy-1-azaspiro[4.5]dec-3-en-2-one]: 915 nM and over 20000 nM.
On to `CO[C@H]1CC[C@]2(CC1)NC(=O)C(c1c(C)ccc(-c3ccc(F)cc3)c1C)=C2O` [Example 1-45, (5s,8s)-3-(4′-fluoro-2,4-dimethylbiphenyl-3-yl)-4-hydroxy-8-methoxy-1-azaspiro[4.5]dec-3-en-2-one], for which the results for the IC50 in assay [1] and in assay [2] were 776 nM and 3610 nM, respectively.
The matching figures for `COCC1(C)NC(=O)C(c2cc(-c3ccc(Cl)cc3)ccc2C)=C1O` (stereo not shown) [Example 1-46, 3-(4′-chloro-4-methylbiphenyl-3-yl)-4-hydroxy-5-(methoxymethyl)-5-methyl-1,5-dihydro-2H-pyrrol-2-one]: 812 nM and 15800 nM.
Turning to `COCCC1(C)NC(=O)C(c2cc(-c3ccc(Cl)cc3)ccc2C)=C1O` (stereo not shown) [Example 1-47, 3-(4′-chloro-4-methylbiphenyl-3-yl)-4-hydroxy-5-(2-methoxyethyl)-5-methyl-1,5-dihydro-2H-pyrrol-2-one], the figures for the concentration for half-maximal inhibition (IC50) in assay [1] and in assay [2] were 923 nM and over 20000 nM, respectively.
Consider `COC1CCC2(C1)NC(=O)C(c1c(C)ccc(-c3ccc(Cl)cc3)c1C)=C2O` (stereo not shown) [Example 1-48, 3-(4′-chloro-2,4-dimethylbiphenyl-3-yl)-4-hydroxy-7-methoxy-1-azaspiro[4.4]non-3-en-2-one], for which the half-maximal inhibitory concentration (IC50) in assay [1] amounted to 1010 nM; in assay [2], 8600 nM.
In the case of `COCC1CCCC2(C1)NC(=O)C(c1cc(-c3ccc(Cl)cc3)ccc1C)=C2O` (stereo not shown) [Example 1-51, 3-(4′-chloro-4-methylbiphenyl-3-yl)-4-hydroxy-7-(methoxymethyl)-1-azaspiro[4.5]dec-3-en-2-one], the IC50 was 473 nM in assay [1] and 4910 nM in assay [2].
In the case of `COCC1CCCC2(C1)NC(=O)C(c1cc(-c3ccc(Cl)cc3)ccc1Cl)=C2O` (stereo not shown) [Example 1-52, 3-(4,4′-dichlorobiphenyl-3-yl)-4-hydroxy-7-(methoxymethyl)-1-azaspiro[4.5]dec-3-en-2-one], the figures for the IC50 in assay [1] and in assay [2] were 1270 nM and over 20000 nM, respectively.
The corresponding values for `COCC1CCC2(CC1)NC(=O)C(c1c(C)ccc(-c3ccc(Cl)cc3)c1C)=C2O` (stereo not shown) [Example 1-53, 3-(4′-chloro-2,4-dimethylbiphenyl-3-yl)-4-hydroxy-8-(methoxymethyl)-1-azaspiro[4.5]dec-3-en-2-one] are 506 nM and 214 nM.
For the compound `COCC1CCC2(CC1)NC(=O)C(c1cc(-c3ccc(Cl)cc3)ccc1Cl)=C2O` (stereo not shown) [Example 1-54, 3-(4,4′-dichlorobiphenyl-3-yl)-4-hydroxy-8-(methoxymethyl)-1-azaspiro[4.5]dec-3-en-2-one], the values for the IC50 in assay [1] and in assay [2] were 220 nM and 1100 nM, respectively.
The matching figures for `COCCC1CCCC2(C1)NC(=O)C(c1c(C)ccc(-c3ccc(Cl)cc3)c1C)=C2O` (stereo not shown) [Example 1-55, 3-(4′-chloro-2,4-dimethylbiphenyl-3-yl)-4-hydroxy-7-(2-methoxyethyl)-1-azaspiro[4.5]dec-3-en-2-one]: 918 nM and 465 nM.
The matching figures for `COCC1CCC2(CC1)NC(=O)C(c1cc(-c3ccc(Cl)cc3)ccc1C)=C2O` (stereo not shown) [Example 1-56, 3-(4′-chloro-4-methylbiphenyl-3-yl)-4-hydroxy-8-(methoxymethyl)-1-azaspiro[4.5]dec-3-en-2-one]: 430 nM and 320 nM.
The corresponding values for `COCCC1CCC2(CC1)NC(=O)C(c1c(C)ccc(-c3ccc(Cl)cc3)c1C)=C2O` (stereo not shown) [Example 1-57, 3-(4′-chloro-2,4-dimethylbiphenyl-3-yl)-4-hydroxy-8-(2-methoxyethyl)-1-azaspiro[4.5]dec-3-en-2-one] are 790 nM and 220 nM.
As for `O=C1NC2(CCC3(CC2)OCCCO3)C(O)=C1c1cc(-c2ccc(Cl)cc2)ccc1Cl` [Example 1-58, 3-(4,4′-dichlorobiphenyl-3-yl)-4-hydroxy-9,13-dioxa-1-azadispiro[4.2.5.2]pentadec-3-en-2-one], the IC50 in assay [1] turned out to be 362 nM; in assay [2] it was 11500 nM.
The matching figures for `Cc1ccc(-c2ccc(Cl)cc2)cc1C1=C(O)C2(CCC3(CC2)OCCCO3)NC1=O` [Example 1-59, 3-(4′-chloro-4-methylbiphenyl-3-yl)-4-hydroxy-9,13-dioxa-1-azadispiro[4.2.5.2]pentadec-3-en-2-one]: 427 nM and 5200 nM.
The matching figures for `Cc1ccc(-c2ccc(Cl)cc2)cc1C1=C(O)C2(CCC3(CC2)OCCO3)NC1=O` [Example 1-60, 11-(4′-chloro-4-methylbiphenyl-3-yl)-12-hydroxy-1,4-dioxa-9-azadispiro[4.2.4.2]tetradec-11-en-10-one]: 237 nM and 2330 nM.
The matching figures for `O=C1NC2(CCC3(CC2)OCCO3)C(O)=C1c1cc(-c2ccc(Cl)cc2)ccc1Cl` [Example 1-61, 11-(4,4′-dichlorobiphenyl-3-yl)-12-hydroxy-1,4-dioxa-9-azadispiro[4.2.4.2]tetradec-11-en-10-one]: 227 nM and 3910 nM.
Turning to `Cc1ccc(-c2ccc(Cl)cc2)cc1C1=C(O)C2(CCC3(CC2)OCC(C)O3)NC1=O` (stereo not shown) [Example 1-63, 11-(4′-chloro-4-methylbiphenyl-3-yl)-12-hydroxy-2-methyl-1,4-dioxa-9-azadispiro[4.2.4.2]tetradec-11-en-10-one], the IC50 in assay [1] was determined as 391 nM; in assay [2] it was 4220 nM.
The corresponding values for `Cc1ccc(-c2ccc(Cl)cc2)cc1C1=C(O)C2(CCC3(CC2)OC(C)C(C)O3)NC1=O` (stereo not shown) [Example 1-64, 11-(4′-chloro-4-methylbiphenyl-3-yl)-12-hydroxy-2,3-dimethyl-1,4-dioxa-9-azadispiro[4.2.4.2]tetradec-11-en-10-one] are 985 nM and 16400 nM.
As to `CC1(C)COC2(CCC3(CC2)NC(=O)C(c2cc(-c4ccc(Cl)cc4)ccc2Cl)=C3O)OC1` [Example 1-65, 3-(4,4′-dichlorobiphenyl-3-yl)-4-hydroxy-11,11-dimethyl-9,13-dioxa-1-azadispiro[4.2.5.2]pentadec-3-en-2-one], the results for the IC50 in assay [1] and in assay [2] were 934 nM and 9470 nM, respectively.
The matching figures for `Cc1ccc(-c2ccc(Cl)cc2)cc1C1=C(O)C2(CCC3(CC2)OCC(C)CO3)NC1=O` (stereo not shown) [Example 1-66, 3-(4′-chloro-4-methylbiphenyl-3-yl)-4-hydroxy-1′-methyl-9,13-dioxa-1-azadispiro[4.2.5.2]pentadec-3-en-2-one]: 409 nM and 1540 nM.

For orientation: IC50 means the concentration at which inhibition is half-maximal.
